The values below come from PubChem BioAssay AID250 (DTP/NCI, 2004).

“And” between values parts separate entries of the source, which are not always exact repeats. Identical values can stand only once. Inconclusive results and toxic doses are left out.

The test concerns BDF1 mice, L1210 leukemia sc, survival T/C. In words: NCI In Vivo Anticancer Drug Screen. Data for tumor model L1210 Leukemia (subcutaneous) in B6D2F1 (BDF1) mice. Particulars: higher = longer survival. Put shortly: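 Read-out: T/C ratio, i.e. survival or tumor size in treated mice over that in vehicle-treated controls, from mice bearing transplantable tumors.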
Where [1] appears, read: endpoint: median survival time, dose: 65.0 mg/kg/injection, schedule: Q01DX Z (sc), vehicle: methylcellulose (MC).
Where [2] appears, read: endpoint: median survival time, dose: 108.0 mg/kg/injection, schedule: Q01DX Z (sc), vehicle: methylcellulose (MC).
[3] abbreviates: endpoint: median survival time, dose: 14.0 mg/kg/injection, schedule: Q01DX Z (sc), vehicle: saline.
[4] abbreviates: endpoint: median survival time, dose: 39.0 mg/kg/injection, schedule: Q01DX Z (sc), vehicle: saline.
Where [5] appears, read: endpoint: median survival time, dose: 65.0 mg/kg/injection, schedule: Q01DX Z (sc), vehicle: saline.
The mark [6] stands for this setting: endpoint: median survival time, dose: 108.0 mg/kg/injection, schedule: Q01DX Z (sc), vehicle: saline.
The mark [7] stands for this setting: endpoint: median survival time, dose: 180.0 mg/kg/injection, schedule: Q01DX Z (sc), vehicle: methylcellulose (MC).
The mark [8] stands for this setting: endpoint: median survival time, dose: 300.0 mg/kg/injection, schedule: Q01DX Z (sc), vehicle: methylcellulose (MC).
The mark [9] stands for this setting: endpoint: median survival time, dose: 500.0 mg/kg/injection, schedule: Q01DX Z (sc), vehicle: methylcellulose (MC).
Setting [10] is: endpoint: median survival time, dose: 180.0 mg/kg/injection, schedule: Q01DX Z (sc), vehicle: saline.

Regarding `CC(=O)OCC1OC(n2ccc(N)nc2=O)C(OC(C)=O)C1OC(C)=O` (centres undefined), the T/C by setting is: (endpoint: median survival time, dose: 20.0 mg/kg/injection, schedule: Q01DX Z (oral), vehicle: carboxymethylcellulose (CMC)) 220 % of control; (endpoint: median survival time, dose: 20.0 mg/kg/injection, schedule: Q01DX Z (sc), vehicle: carboxymethylcellulose (CMC)) 290 % of control; (endpoint: median survival time, dose: 40.0 mg/kg/injection, schedule: Q01DX Z (oral), vehicle: carboxymethylcellulose (CMC)) 255 % of control; (endpoint: median survival time, dose: 40.0 mg/kg/injection, schedule: Q01DX Z (sc), vehicle: carboxymethylcellulose (CMC)) 360 % of control; (endpoint: median survival time, dose: 80.0 mg/kg/injection, schedule: Q01DX Z (oral), vehicle: carboxymethylcellulose (CMC)) 270 % of control; (endpoint: median survival time, dose: 80.0 mg/kg/injection, schedule: Q01DX Z (sc), vehicle: carboxymethylcellulose (CMC)) 360 % of control. Further, the T/C is 260 % of control (endpoint: median survival time, dose: 160.0 mg/kg/injection, schedule: Q01DX Z (oral), vehicle: carboxymethylcellulose (CMC)); 225 % of control (endpoint: median survival time, dose: 160.0 mg/kg/injection, schedule: Q01DX Z (sc), vehicle: carboxymethylcellulose (CMC)); 320 % of control (endpoint: median survival time, dose: 320.0 mg/kg/injection, schedule: Q01DX Z (oral), vehicle: carboxymethylcellulose (CMC)).

On to `CCOC(=O)NP(=O)(N1CC1)N1CC1`, for which the T/C reads like this: (endpoint: median survival time, dose: 5.0 mg/kg/injection, schedule: Q01DX Z (sc), vehicle: water) 120 % of control; (endpoint: median survival time, dose: 14.0 mg/kg/injection, schedule: Q01DX Z (sc), vehicle: water) 150 % of control; (endpoint: median survival time, dose: 23.0 mg/kg/injection, schedule: Q02DX Z (sc), vehicle: water) 170 % of control; (endpoint: median survival time, dose: 23.0 mg/kg/injection, schedule: Q## X Z (sc), vehicle: water) 165 % of control; (endpoint: median survival time, dose: 39.0 mg/kg/injection, schedule: Q01DX001 (sc), vehicle: water) 160 % of control; (endpoint: median survival time, dose: 39.0 mg/kg/injection, schedule: Q07DX Z (sc), vehicle: water) 150 % of control.

For `COc1cc2cc3c4cc(OC)c(OC)cc4cc[n+]3c(C)c2cc1OC`, the T/C is, setting by setting: (endpoint: median survival time, dose: 100.0 mg/kg/injection, schedule: Q01DX009 (sc), vehicle: saline) 97 % of control and 100 % of control; (endpoint: median survival time, dose: 200.0 mg/kg/injection, schedule: Q01DX009 (sc), vehicle: saline) 97 % of control and 100 % of control; (endpoint: median survival time, dose: 400.0 mg/kg/injection, schedule: Q01DX009 (sc), vehicle: saline) 99 % of control and 100 % of control; (endpoint: median survival time, dose: 800.0 mg/kg/injection, schedule: Q01DX009 (sc), vehicle: saline) 100 % of control and 101 % of control; (endpoint: median survival time, dose: 1600.0 mg/kg/injection, schedule: Q01DX009 (sc), vehicle: saline) 97 % of control and 100 % of control.

For `CS(=O)(=O)Nc1ccc(Nc2c3ccccc3nc3ccccc23)cc1`, the T/C reads like this: (endpoint: mean survival time, dose: 10.0 mg/kg/injection, schedule: Q01DX009 (ip), vehicle: saline) 96 % of control; (endpoint: mean survival time, dose: 20.0 mg/kg/injection, schedule: Q01DX009 (ip), vehicle: saline) 103 % of control; (endpoint: mean survival time, dose: 40.0 mg/kg/injection, schedule: Q01DX009 (ip), vehicle: saline) 111 % of control; (endpoint: mean survival time, dose: 80.0 mg/kg/injection, schedule: Q01DX009 (ip), vehicle: saline) 90 % of control.

Consider `NS(=O)(=O)c1ncnc2nc[nH]c12`, for which the T/C by setting is: under setting [1], 100 % of control; under setting [2], 105 % of control.

With `S=P(N1CCCCCC1)(N1CC1)N1CC1`, the T/C reads like this: (endpoint: median survival time, dose: 4.7 mg/kg/injection, schedule: Q01DX Z (sc), vehicle: saline) 100 % of control; (endpoint: median survival time, dose: 7.8 mg/kg/injection, schedule: Q01DX Z (sc), vehicle: saline) 111 % of control; (endpoint: median survival time, dose: 8.4 mg/kg/injection, schedule: Q01DX Z (sc), vehicle: saline) 111 % of control; (endpoint: median survival time, dose: 13.0 mg/kg/injection, schedule: Q01DX Z (sc), vehicle: saline) 100 % of control; under setting [3], 111 % of control; (endpoint: median survival time, dose: 21.6 mg/kg/injection, schedule: Q01DX Z (sc), vehicle: saline) 111 % of control. The T/C reads like this: (endpoint: median survival time, dose: 23.0 mg/kg/injection, schedule: Q01DX Z (sc), vehicle: saline) 111 % of control; (endpoint: median survival time, dose: 36.0 mg/kg/injection, schedule: Q01DX Z (sc), vehicle: saline) 116 % of control; under setting [4], 122 % of control; (endpoint: median survival time, dose: 60.0 mg/kg/injection, schedule: Q01DX Z (sc), vehicle: saline) 166 % of control; under setting [5], 116 % of control; (endpoint: median survival time, dose: 100.0 mg/kg/injection, schedule: Q01DX Z (sc), vehicle: saline) 161 % of control. Besides, the T/C under setting [6] is 155 % of control.

With `CN(O)C(N)=O`, the T/C (endpoint: median survival time, dose: 360.0 mg/kg/injection, schedule: Q01DX Z (sc), vehicle: saline) was 150 % of control.

On to `CC(=O)[C@@]1(O)CC[C@H]2[C@@H]3C[C@H](C)C4=CC(=O)C=C[C@]4(C)[C@@]3(F)[C@@H](O)C[C@@]21C`, for which the T/C is 111 % of control (endpoint: median survival time, dose: 39.0 mg/kg/injection, schedule: Q01DX Z (sc), vehicle: methylcellulose (MC)); 105 % of control under setting [1]; 111 % of control under setting [2]; 111 % of control under setting [7]; 111 % of control under setting [8]; 100 % of control under setting [9].

Take `S=P(N1CCOCC1)(N1CC1)N1CC1`: the T/C under setting [3] was 96 % of control and 110 % of control (2×); the T/C (endpoint: median survival time, dose: 23.0 mg/kg/injection, schedule: Q## X Z (sc), vehicle: saline) is 120 % of control; the T/C (endpoint: median survival time, dose: 39.0 mg/kg/injection, schedule: Q01DX001 (sc), vehicle: saline) was 120 % of control; the T/C under setting [4] is 150 % of control and 180 % of control; the T/C (endpoint: median survival time, dose: 65.0 mg/kg/injection, schedule: Q01DX001 (sc), vehicle: saline) was 150 % of control; the T/C under setting [5] was 150 % of control. In addition, the T/C is 170 % of control (endpoint: median survival time, dose: 65.0 mg/kg/injection, schedule: Q## X Z (sc), vehicle: saline); 104 % of control and 120 % of control under setting [6]; 104 % of control and 120 % of control under setting [10]; 115 % of control (endpoint: median survival time, dose: 500.0 mg/kg/injection, schedule: Q01DX001 (sc), vehicle: saline).

For the compound `O=c1[nH]cc(Br)c(=O)[nH]1`, the T/C (endpoint: median survival time, dose: 38.9 mg/kg/injection, schedule: Q01DX Z (sc), vehicle: saline) is 91 % of control; the T/C (endpoint: median survival time, dose: 64.8 mg/kg/injection, schedule: Q01DX Z (sc), vehicle: saline) is 95 % of control; the T/C under setting [6] is 100 % of control; the T/C under setting [10] is 100 % of control; the T/C (endpoint: median survival time, dose: 300.0 mg/kg/injection, schedule: Q01DX Z (sc), vehicle: saline) was 100 % of control; the T/C (endpoint: median survival time, dose: 500.0 mg/kg/injection, schedule: Q01DX Z (sc), vehicle: saline) was 100 % of control.

As for `COC(=N)N`, the T/C was 100 % of control (endpoint: median survival time, dose: 1.8 mg/kg/injection, schedule: Q01DX Z (sc), vehicle: methylcellulose (MC)) and 100 % of control (endpoint: median survival time, dose: 3.0 mg/kg/injection, schedule: Q01DX Z (sc), vehicle: methylcellulose (MC)).

In the case of `OC(c1ccccc1)c1nc2ccccc2[nH]1` (centres undefined), the T/C by setting is: under setting [2], 100 % of control; under setting [7], 100 % of control; under setting [8], 100 % of control; under setting [9], 100 % of control; (endpoint: median survival time, dose: 840.0 mg/kg/injection, schedule: Q01DX Z (sc), vehicle: methylcellulose (MC)) 100 % of control.
